We go through 24 molecules from US6831190B1, “Guanidinomethyl cyclohexane carboxylic acid ester derivatives” (Teikoku Chemical Industries Co., Ltd., priority 1994, dated 2004).

What all share (assay type): cell-based
Assay [1] deals with Escherichia coli NIH JC-2. In words: MIC, standard method of Japanese Chemotherapy Academy. As to conditions: Objected Strain 3: Escherichia coli NIH JC-2. As for the experimental part:
1. Minimum Inhibitory Concentration (MIC) was measured in accordance with the standard method of Japanese Chemotherapy Academy (Chemotherapy, 29: 76-79, 1981).

The test system of assay [2] is Helicobacter pylori ATCC 43629. In words: MIC, agar plating dilution (standard method of Japanese Chemotherapy Academy). The protocol: (§1) 1. Minimum Inhibitory Concentration (MIC) was measured in accordance with the standard method of Japanese Chemotherapy Academy (Chemotherapy, 29: 76-79, 1981). Sensitivity was measured with an agar plating dilution using Brain-Heart Infusion agar (Difco Co.) which was added 0.1% of cyclodextrin. […] of the solutions of the compounds which were obtained in examples of the present invention was prepared by dissolving in dimethylsulfoxide. […] Each of 1 ml of those prepared solutions was dispensed in share, after sterilization, 9 ml of sensitivity measuring medium which is kept at 50° C. was added to each, and they were sufficiently mixed. The mixture was used as a plate for measuring sensitivity. Brain Heart Infusion agar medium (Difco Co.), which was added 0.1% of cyclodextrin, was used as bacteria growing medium, and was cultured under microair at 37° C. for three days, and the number of bacteria thereof was adjusted to about 106/ml. This was used as a bacterial solution for inoculation. The medium was painted in each square about 2 cm with nichromic line loop. The medium was cultured under microair for three days at 37° C.

Assay [3] relates to Helicobacter pylori ATCC 43504. The description is as above. As for the experimental part: as §1
[4] abbreviates: Objected Strain 2: Helicobacter pylori ATCC 43629.
[5] abbreviates: Objected Strain 1: Helicobacter pylori ATCC 43504.
The mark [6] stands for this setting: ATCC43629, Objected Strain 2: Helicobacter pylori ATCC 43629, read-out: MIC.
Where [7] appears, read: ATCC43504, Objected Strain 1: Helicobacter pylori ATCC 43504, read-out: MIC.

≈ marks a conversion by molar mass, not a printed value. Read-outs that look alike come from different tables or passages of the source.

For the molecule `Cl.N=C(N)NC[C@H]1CC[C@H](C(=O)Oc2ccc(-c3ccc(F)cc3)cc2)CC1` [Example 27, trans-4-guanidinomethyl cyclohexane carboxylic acid[4-(4-fluorophenyl)phenylester].hydrochloride], the MIC is >25 µg/mL in assay [1], 1.56 µg/mL in assay [2] (setting [4]) and 0.78 µg/mL in assay [3] (setting [5]).
On the same counts, the results for `Cl.N=C(N)NC[C@H]1CC[C@H](C(=O)Oc2ccc(-c3ccccc3)cc2Cl)CC1` [Example 6, trans-4-guanidinomethyl cyclohexane carboxylic acid (2-chloro-4-phenylphenylester).hydrochloride] are >25 µg/mL, 1.56 µg/mL and 6.25 µg/mL.
For the molecule `Cl.N=C(N)NC[C@H]1CC[C@H](C(=O)Oc2cccc3ccccc23)CC1` [Compound 3, trans-4-guanidinomethyl cyclohexane carboxylic acid (1-naphthylester)hydrochloride, reference compound], the minimum inhibitory concentration (MIC) in assay [1], in assay [2] (setting [4]) and in assay [3] (setting [5]) was >25 µg/mL in each case.
As to `CS(=O)(=O)O.N=C(N)NC[C@H]1CC[C@H](C(=O)Oc2c(C(=O)OCc3ccc(F)cc3)cccc2-c2ccccc2)CC1` [Example 10, trans-4-guanidinomethyl cyclohexane carboxylic acid [2-(4-fluorobenzyloxycarbonyl)-6-phenylphenylester].methansulfonate], the MIC in assay [1] was >25 µg/mL; in assay [2] (setting [4]), 6.25 µg/mL; in assay [3] (setting [5]) it was 6.25 µg/mL.
Consider `CCc1ccc(OC(=O)C2CCC(CNC(=N)N)CC2)cc1` (stereo not drawn) [Compound 6, reference compound], for which the MIC is > 25 µg/mL in assay [1] (NIHJC2, read-out: MIC); 25 µg/mL (≈ 82.4 µM) in assay [2] (setting [6]); 25 µg/mL (≈ 82.4 µM) in assay [3] (setting [7]).
Take `Cl.N=C(N)NC[C@H]1CC[C@H](C(=O)Oc2ccc3ccccc3c2)CC1` [Compound 4, trans-4-guanidinomethyl cyclohexane carboxylic acid (2-naphthylester)hydrochloride, reference compound]: the MIC in assay [1] is >25 µg/mL; in assay [2] (setting [4]), 25 µg/mL; in assay [3] (setting [5]) it was 25 µg/mL.
As to `N=C(N)NCC1CCC(C(=O)Oc2ccc(C(=O)OCc3ccccc3)cc2)CC1` (stereo not drawn) [Compound 5, reference compound], the minimal inhibitory concentration (MIC) in assay [1] (NIHJC2, read-out: MIC) was > 25 µg/mL; in assay [2] (setting [6]), 6.25 µg/mL (≈ 15.3 µM); in assay [3] (setting [7]), 12.5 µg/mL (≈ 30.5 µM).
Consider `Cl.N=C(N)NC[C@H]1CC[C@H](C(=O)Oc2ccc(C3CCCCC3)cc2)CC1` [Example 32, trans-4-guanidinomethyl cyclohexane carboxylic acid (4-cyclohexyphenylester).hydrochloride], for which the MIC in assay [1] was >25 µg/mL; in assay [2] (setting [4]) it was 0.78 µg/mL; in assay [3] (setting [5]), 3.13 µg/mL.
For `Cl.N=C(N)NC[C@H]1CC[C@H](C(=O)Oc2c(Cl)cc(Cl)cc2-c2ccccc2)CC1` [Example 12, trans-4-guanidinomethyl cyclohexane carboxylic acid (2,4-dicloro-6-phenylphenylester).hydrochloride] the same measures were >25 µg/mL, 3.13 µg/mL and 3.13 µg/mL.
For `Cl.N#Cc1ccc(-c2ccc(OC(=O)[C@H]3CC[C@H](CNC(=N)N)CC3)cc2)cc1` [Example 7, trans4-guanidinomethyl cyclohexane carboxylic acid [4-(4-cyanophenyl)phenylester].hydrochloride] the same measures were >25 µg/mL, 3.13 µg/mL and 3.13 µg/mL.
Take `Cl.N=C(N)NC[C@H]1CC[C@H](C(=O)Oc2c(C(=O)OCc3ccccc3)cccc2-c2ccccc2)CC1` [Example 9, trans-4-guanidinomethyl cyclohexane carboxylic acid (2-benzyloxycarbonyl-6-phenylphenylester).hydrochloride]: the MIC is >25 µg/mL in assay [1], 3.13 µg/mL in assay [2] (setting [4]) and 6.25 µg/mL in assay [3] (setting [5]).
On the same counts, the results for `Cl.N=C(N)NC[C@H]1CC[C@H](C(=O)Oc2ccc(-c3ccc([N+](=O)[O-])cc3)cc2)CC1` [Example 22, trans-4-guanidinomethyl cyclohexane carboxylic acid [4-(4-nitrophenyl)phenylester].hydrochloride] are >25 µg/mL, 3.13 µg/mL and 1.56 µg/mL.
On the same counts, the results for `Cl.N=C(N)NC[C@H]1CC[C@H](C(=O)Oc2c(Cl)cc(Cl)c3ccccc23)CC1` [Example 30, trans-4-guanidinomethyl cyclohexane carboxylic acid (2,4-dichloro-1-naphthyleter).hydrochloride] are >25 µg/mL, 3.13 µg/mL and 3.13 µg/mL.
Consider `CS(=O)(=O)O.N=C(N)NC[C@H]1CC[C@H](C(=O)Oc2c(C(=O)OCc3ccc(F)cc3)cc(Br)cc2-c2ccccc2)CC1` [Example 11, trans-4-guanidinomethyl cyclohexane carboxylic acid [4-bromo-2-(4-fluorobenzyloxycarbonyl)-6-phenylphenylester].methanosulforate], for which the MIC was >25 µg/mL in assay [1], 6.25 µg/mL in assay [2] (setting [4]) and 6.25 µg/mL in assay [3] (setting [5]).
`Cl.N=C(N)NC[C@H]1CC[C@H](C(=O)Oc2c(Cl)cc(Cl)c3ccccc23)CC1` [Example 29, trans-4-guanidinomethyl cyclohexane carboxylic acid (2,4-dichloro-1-naphthylester).hydrochloride]: the MIC is >25 µg/mL in assay [1], 12.5 µg/mL in assay [2] (setting [4]) and 6.25 µg/mL in assay [3] (setting [5]).
On the same counts, the results for `Cl.N=C(N)NC[C@H]1CC[C@H](C(=O)Oc2ccccc2-c2ccccc2)CC1` [Compound 2, trans4-guanidinomethyl cyclohexane carboxylic acid (2-phenylphenylester)hydrochloride, reference compound] are >25 µg/mL, 25 µg/mL and 25 µg/mL.
On the same counts, the results for `COc1ccc(-c2ccc(OC(=O)[C@H]3CC[C@H](CNC(=N)N)CC3)cc2)cc1.Cl` [Example 5, trans-4-guanidinomethyl cyclohexane carboxylic acid [4-(4-methoxyphenyl)phenylester].hydrochloride] are >25 µg/mL, 1.56 µg/mL and 3.13 µg/mL.
Turning to `Cl.N=C(N)NC[C@H]1CC[C@H](C(=O)Oc2ccc3cc(Br)ccc3c2)CC1` [Example 31, trans-4-guanidinomethyl cyclohexane carboxylic acid (6-bromo-2-naphthyl ester).hydrochloride], the values for the MIC in assay [1], in assay [2] (setting [4]) and in assay [3] (setting [5]) were >25 µg/mL, 0.78 µg/mL and 3.13 µg/mL, respectively.
For the molecule `CC(C)(C)c1ccc(OC(=O)C2CCC(CNC(=N)N)CC2)cc1` (stereo not drawn) [Compound 7, reference compound], the MIC in assay [1] (NIHJC2, read-out: MIC) was > 25 µg/mL; in assay [2] (setting [6]), 12.5 µg/mL (≈ 37.7 µM); in assay [3] (setting [7]) it was 25 µg/mL (≈ 75.4 µM).
Consider `Cl.N=C(N)NC[C@H]1CC[C@H](C(=O)Oc2ccc(Cc3ccccc3)cc2)CC1` [Example 33, trans-4-guanidinomethyl cyclohexane carboxylic acid (4-benzylphenylester).hydrochloride], for which the MIC in assay [1] was >25 µg/mL; in assay [2] (setting [4]), 12.5 µg/mL; in assay [3] (setting [5]) it was 12.5 µg/mL.
On to `Cl.N=C(N)NC[C@H]1CC[C@H](C(=O)Oc2ccc(Oc3ccccc3)cc2)CC1` [Example 35, trans-4-guanidinomethyl cyclohexane carboxylic acid (4-phenoxyphenylester).hydrochloride], for which the MIC in assay [1] was >25 µg/mL; in assay [2] (setting [4]) it was 25 µg/mL; in assay [3] (setting [5]) it was 12.5 µg/mL.
On to `CC(C)(c1ccccc1)c1ccc(OC(=O)[C@H]2CC[C@H](CNC(=N)N)CC2)cc1.Cl` [Example 34, trans-4-guanidinomethyl cyclohexane carboxylic acid[4-(1-methyl-1-phenylethyl)phenylester].hydrochloride], for which the MIC in assay [1] was >25 µg/mL; in assay [2] (setting [4]), 25 µg/mL; in assay [3] (setting [5]), 25 µg/mL.
Consider `Cl.N=C(N)NC[C@H]1CC[C@H](C(=O)Oc2ccc(C=Cc3ccccc3)cc2)CC1` [Example 38, trans-4-guanidinomethyl cyclohexane carboxylic acid (4-styrylphenylester).hydrochloride], for which the MIC was >25 µg/mL in assay [1], 0.39 µg/mL in assay [2] (setting [4]) and 0.78 µg/mL in assay [3] (setting [5]).
As to `Cl.N=C(N)NC[C@H]1CC[C@H](C(=O)Oc2ccc(-c3ccc(Br)cc3)cc2)CC1` [Example 4, trans-4-guanidinomethyl cyclohexane carboxylic acid [4-(4-bromophenyl)phenylester].hydrochloride], the values for the minimal inhibitory concentration (MIC) in assay [1], in assay [2] (setting [4]) and in assay [3] (setting [5]) were >25 µg/mL, 0.39 µg/mL and 1.56 µg/mL, respectively.
